Tests used:
Assay type in all cases: functional
[1] = Antiplatelet activity in human whole blood assessed as inhibition of collagen-induced platelet aggregation at 100 ug/mL relative to control
[2] = Antiplatelet activity in human whole blood assessed as inhibition of arachidonic acid-induced platelet aggregation at 100 ug/mL relative to control
[3] = Antiplatelet activity in human whole blood assessed as inhibition of ristocetin-induced platelet aggregation at 100 ug/mL relative to control
[4] = Antiplatelet activity in human whole blood assessed as inhibition of ADP-induced platelet aggregation at 100 ug/mL relative to control

O=C(/C=C(O)/C=C/c1ccc(O)cc1)CCc1ccc(O)cc1
inhibition at 100 µg/mL [1]: 77.3%
inhibition at 100 µg/mL [2]: 100%
inhibition at 100 µg/mL [3]: 62.8%
inhibition at 100 µg/mL [4]: 100%

COc1cc(/C=C/c2ccc(O)cc2)oc(=O)c1
inhibition at 100 µg/mL [1]: 86.9%
inhibition at 100 µg/mL [2]: 100%
inhibition at 100 µg/mL [3]: 100%
inhibition at 100 µg/mL [4]: 100%

COc1cc(O)cc2c1C(=O)CC(c1ccc(O)cc1)O2 (stereo unspecified)
inhibition at 100 µg/mL [1]: 57.7%
inhibition at 100 µg/mL [2]: 26.2%
inhibition at 100 µg/mL [3]: 37.2%
inhibition at 100 µg/mL [4]: 14.5%

O=Cc1ccc(O)cc1 [4-HYDROXYBENZALDEHYDE]
inhibition at 100 µg/mL [1]: 23.6%
inhibition at 100 µg/mL [2]: 5.4%
inhibition at 100 µg/mL [3]: 11%
inhibition at 100 µg/mL [4]: 39.8%

O=C(/C=C/c1ccc(O)cc1)CC(=O)/C=C/c1ccc(O)cc1 [BISDEMETHOXYCURCUMIN]
inhibition at 100 µg/mL [1]: 76.3%
inhibition at 100 µg/mL [2]: 46.8%
inhibition at 100 µg/mL [3]: 38.3%
inhibition at 100 µg/mL [4]: 35.4%

COc1cc(O)cc(O)c1C(=O)/C=C/c1ccccc1 [CARDAMOMIN]
inhibition at 100 µg/mL [1]: 56%
inhibition at 100 µg/mL [2]: 100%
inhibition at 100 µg/mL [3]: 0%
inhibition at 100 µg/mL [4]: 62.9%

COc1cc(/C=C/c2ccccc2)oc(=O)c1 [DESMETHOXYYANGONIN]
inhibition at 100 µg/mL [1]: 48.9%
inhibition at 100 µg/mL [2]: 100%
inhibition at 100 µg/mL [3]: 33.3%
inhibition at 100 µg/mL [4]: 43.8%

COc1cc(O)cc(O)c1C(=O)/C=C/c1ccc(O)cc1 [HELICHRYSETIN]
inhibition at 100 µg/mL [1]: 32.3%
inhibition at 100 µg/mL [2]: 100%
inhibition at 100 µg/mL [3]: 63.8%
inhibition at 100 µg/mL [4]: 48.9%

COc1ccc2c(c1)c(CC(=O)O)c(C)n2C(=O)c1ccc(Cl)cc1 [INDOMETHACIN]
inhibition at 100 µg/mL [1]: 71.1%
inhibition at 100 µg/mL [2]: 100%
inhibition at 100 µg/mL [3]: 52.1%
inhibition at 100 µg/mL [4]: 36.7%

Source: ChEMBL document CHEMBL1159199, “A new antiplatelet diarylheptanoid from Alpinia blepharocalyx” (1998)
